Tests used:
Test in all cases: HIV-1 RT Assay
Settings in all cases: pH 8.2
[1] = molecular target: Gag-Pol polyprotein [588-1027]/[588-1147] (Human immunodeficiency virus 1, UniProt P04585)
[2] = molecular target: Gag-Pol polyprotein [588-1127,Y768C]/[588-1147,Y768C] (Human immunodeficiency virus 1, UniProt P04585, Y768C)
[3] = molecular target: Gag-Pol polyprotein [588-1027,K690N]/[588-1147,K690N] (Human immunodeficiency virus 1, UniProt P04585, K690N)

CNC(=O)c1[nH]c2ccccc2c1Sc1ccccc1 [N-methyl-3-(phenylsulfanyl)-1H-indole-2-carboxamide]
IC50 [1]: 746 nM

COC(=O)c1[nH]c2ccccc2c1Sc1ccccc1 [methyl 3-(phenylsulfanyl)-1H-indole-2-carboxylate]
IC50 [1]: 2500 nM

[O-][S+](Cc1[nH]c2ccc(Cl)cc2c1Sc1ccccc1)c1ccccc1 (configuration not stated) [2-[(benzenesulfinyl)methyl]-5-chloro-3-(phenylsulfanyl)-1H-indole]
IC50 [1]: 112 nM

NC(=O)c1[nH]c2ccc(Cl)cc2c1S(=O)(=O)c1ccccc1 [5Cl3PhSO2-2IndolCONH2]
IC50 [2]: 71 nM | IC50 [3]: 116 nM | IC50 [1]: 3 nM

COC(=O)c1[nH]c2ccc(Cl)cc2c1Sc1ccccc1 [methyl 5-chloro-3-(phenylsulfanyl)-1H-indole-2-carboxylate]
IC50 [1]: 156 nM

CN(C)C(=O)c1[nH]c2ccccc2c1Sc1ccccc1 [N,N-dimethyl-3-(phenylsulfanyl)-1H-indole-2-carboxamide]
IC50 [1]: 87600 nM

NC(=O)c1[nH]c2ccc(Cl)cc2c1Sc1ccccc1 [5-chloro-3-(phenylsulfanyl)-1H-indole-2-carboxamide]
IC50 [2]: 1040 nM | IC50 [3]: 1460 nM | IC50 [1]: 14 nM

CNC(=O)c1[nH]c2ccc(Cl)cc2c1Sc1ccccc1 [5-chloro-N-methyl-3-(phenylsulfanyl)-1H-indole-2-carboxamide]
IC50 [1]: 22 nM

[O-][S+](Cc1[nH]c2ccccc2c1[S+]([O-])c1ccccc1)c1ccccc1 (configuration not stated) [3-(benzenesulfinyl)-2-[(benzenesulfinyl)methyl]-1H-indole]
IC50 [1]: 72800 nM

CC(C)=CCN1Cc2cc(Cl)cc3[nH]c(=S)n(c23)C[C@@H]1C [(11S)-6-chloro-11-methyl-10-(3-methylbut-2-en-1-yl)-1,3,10-triazatricyclo[6.4.1.0^{4,13}]trideca-4,6,8(13)-triene-2-thione]
IC50 [2]: 39500 nM | IC50 [3]: 7320 nM | IC50 [1]: 311 nM

NC(=O)c1[nH]c2ccc(Cl)cc2c1[S+]([O-])c1ccccc1 (configuration not stated) [3-(benzenesulfinyl)-5-chloro-1H-indole-2-carboxamide]
IC50 [2]: 1390 nM | IC50 [3]: 2760 nM | IC50 [1]: 23 nM

[O-][S+](Cc1[nH]c2ccccc2c1Sc1ccccc1)c1ccccc1 (configuration not stated) [2-[(benzenesulfinyl)methyl]-3-(phenylsulfanyl)-1H-indole]
IC50 [2]: 2990 nM | IC50 [3]: 2570 nM | IC50 [1]: 63 nM
